# Assays:
# [1] = target: Somatostatin receptor type 1 (Homo sapiens, UniProt P30872); assay: Displacement of [125I]-[Leu8, DTrp22, Tyr25]SRIF28 from human cloned sst1 receptor
# [2] = target: Somatostatin receptor type 2 (Homo sapiens, UniProt P30874); assay: Displacement of [125I]-[Leu8, DTrp22, Tyr25]SRIF-28 from human cloned sst2 receptor expressed in CCL39 cells; assay type: cell-based
# [3] = target: Somatostatin receptor type 3 (Homo sapiens, UniProt P32745); assay: Displacement of [125I]-[Leu8, DTrp22, Tyr25]SRIF-28 from human cloned sst3 receptor expressed in CCL39 cells; assay type: cell-based
# [4] = target: Somatostatin receptor type 4 (Homo sapiens, UniProt P31391); assay: Displacement of [125I]-[Leu8, DTrp22, Tyr25]SRIF-28 from human cloned sst4 receptor expressed in CCL39 cells; assay type: cell-based
# [5] = target: Somatostatin receptor type 5 (Homo sapiens, UniProt P35346); assay: Displacement of [125I]-[Leu8, DTrp22, Tyr25]SRIF-28 from human cloned sst5 receptor expressed in CHOK1 cells; assay type: cell-based, CHO-K1
# Somatostatin receptor type 5, sequence (P35346 whole entry): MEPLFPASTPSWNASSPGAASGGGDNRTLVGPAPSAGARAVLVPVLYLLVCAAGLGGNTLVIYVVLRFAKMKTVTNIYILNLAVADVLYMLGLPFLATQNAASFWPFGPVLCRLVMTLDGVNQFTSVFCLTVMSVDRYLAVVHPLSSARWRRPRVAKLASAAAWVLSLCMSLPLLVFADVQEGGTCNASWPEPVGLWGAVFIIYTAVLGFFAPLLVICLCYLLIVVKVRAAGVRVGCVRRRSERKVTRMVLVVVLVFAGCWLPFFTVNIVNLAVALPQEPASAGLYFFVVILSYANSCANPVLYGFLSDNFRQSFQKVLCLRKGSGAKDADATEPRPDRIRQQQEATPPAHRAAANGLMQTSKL
# Somatostatin receptor type 4, sequence (P31391 whole entry): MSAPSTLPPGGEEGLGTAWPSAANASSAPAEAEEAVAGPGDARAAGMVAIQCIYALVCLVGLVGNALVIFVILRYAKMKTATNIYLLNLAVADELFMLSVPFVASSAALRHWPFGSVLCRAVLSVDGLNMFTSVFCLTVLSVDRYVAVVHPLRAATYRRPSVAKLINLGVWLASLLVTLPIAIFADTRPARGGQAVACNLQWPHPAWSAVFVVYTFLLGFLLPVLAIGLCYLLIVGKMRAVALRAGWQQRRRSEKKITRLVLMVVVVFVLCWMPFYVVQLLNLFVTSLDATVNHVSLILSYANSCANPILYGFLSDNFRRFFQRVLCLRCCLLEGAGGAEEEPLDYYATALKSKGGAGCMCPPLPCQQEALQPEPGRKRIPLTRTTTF
# Somatostatin receptor type 3, sequence (P32745 whole entry): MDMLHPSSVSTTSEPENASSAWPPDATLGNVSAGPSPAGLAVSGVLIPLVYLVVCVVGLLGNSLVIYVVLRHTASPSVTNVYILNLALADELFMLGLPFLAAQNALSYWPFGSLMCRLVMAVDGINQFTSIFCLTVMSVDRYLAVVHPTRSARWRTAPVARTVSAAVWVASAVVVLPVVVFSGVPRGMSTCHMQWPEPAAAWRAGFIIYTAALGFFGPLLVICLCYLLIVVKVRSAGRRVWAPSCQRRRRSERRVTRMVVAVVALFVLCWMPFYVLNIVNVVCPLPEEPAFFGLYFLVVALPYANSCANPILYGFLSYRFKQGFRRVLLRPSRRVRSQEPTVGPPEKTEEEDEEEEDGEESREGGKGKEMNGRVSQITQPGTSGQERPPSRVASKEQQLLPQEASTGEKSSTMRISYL
# Somatostatin receptor type 1, sequence (P30872 whole entry): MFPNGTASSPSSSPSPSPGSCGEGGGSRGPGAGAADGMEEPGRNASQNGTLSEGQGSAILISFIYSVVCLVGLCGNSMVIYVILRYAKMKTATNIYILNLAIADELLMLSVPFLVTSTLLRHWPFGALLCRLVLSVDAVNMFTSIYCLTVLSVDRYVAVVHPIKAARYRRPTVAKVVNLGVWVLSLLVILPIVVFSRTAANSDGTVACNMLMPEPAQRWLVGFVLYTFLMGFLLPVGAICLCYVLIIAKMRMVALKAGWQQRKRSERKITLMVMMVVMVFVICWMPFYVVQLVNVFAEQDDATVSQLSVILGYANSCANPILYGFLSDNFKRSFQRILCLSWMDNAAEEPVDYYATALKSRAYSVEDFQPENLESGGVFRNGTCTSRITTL
# Somatostatin receptor type 2, sequence (P30874 whole entry): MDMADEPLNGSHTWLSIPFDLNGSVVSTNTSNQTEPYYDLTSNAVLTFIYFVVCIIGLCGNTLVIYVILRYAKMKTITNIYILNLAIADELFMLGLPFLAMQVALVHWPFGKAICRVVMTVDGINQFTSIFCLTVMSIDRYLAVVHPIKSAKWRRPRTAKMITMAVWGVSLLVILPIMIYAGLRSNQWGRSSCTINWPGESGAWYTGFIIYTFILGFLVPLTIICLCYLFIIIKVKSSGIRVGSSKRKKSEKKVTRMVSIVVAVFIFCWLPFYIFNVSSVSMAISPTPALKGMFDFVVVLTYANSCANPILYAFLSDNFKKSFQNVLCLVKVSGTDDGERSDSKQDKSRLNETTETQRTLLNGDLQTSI
SMILES,IC50 [1] [nM],IC50 [2] [nM],IC50 [3] [nM],IC50 [4] [nM],IC50 [5] [nM]
CC(=O)N[C@@H]1CSSC[C@@H](C(=O)O)NC(=O)[C@H](Cc2ccccc2)NC(=O)[C@H]([C@@H](C)O)NC(=O)[C@H](CCCCN)NC(=O)[C@@H](Cc2c[nH]c3ccccc23)NC(=O)[C@H](Cc2ccccc2)NC(=O)[C@H](Cc2ccccc2)NC1=O,16,8,19,0.7,9.1
CC(=O)N[C@@H]1SS[C@H](C(=O)O)NC(=O)[C@H](Cc2ccccc2)NC(=O)[C@H]([C@@H](C)O)NC(=O)[C@H](CCCCN)NC(=O)[C@@H](Cc2c[nH]c3ccccc23)NC(=O)[C@H](Cc2ccccc2)NC(=O)[C@H](Cc2ccccc2)NC1=O,302,34,19,1.6,57
CC(=O)N[C@@H]1CSS[C@@H](C(=O)O)NC(=O)[C@H](Cc2ccccc2)NC(=O)[C@H]([C@@H](C)O)NC(=O)[C@H](CCCCN)NC(=O)[C@@H](Cc2c[nH]c3ccccc23)NC(=O)[C@H](Cc2ccccc2)NC(=O)[C@H](Cc2ccccc2)NC1=O,> 1000,4.8,36,3,17
C[C@@H](O)[C@@H]1NC(=O)[C@H](CCCCN)NC(=O)[C@@H](Cc2c[nH]c3ccccc23)NC(=O)[C@H](Cc2ccccc2)NC(=O)[C@H](Cc2ccccc2)NC(=O)[C@H](N)CSSC[C@H](C(=O)O)NC(=O)[C@H](Cc2ccccc2)NC1=O,> 1000,11,6.3,2.6,8.7
CC(=O)N[C@H]1SSC[C@H](C(=O)O)NC(=O)[C@H](Cc2ccccc2)NC(=O)[C@H]([C@@H](C)O)NC(=O)[C@H](CCCCN)NC(=O)[C@@H](Cc2c[nH]c3ccccc23)NC(=O)[C@H](Cc2ccccc2)NC(=O)[C@H](Cc2ccccc2)NC1=O,> 1000,13,28,5,50
C[C@@H](O)[C@@H]1NC(=O)[C@H](CCCCN)NC(=O)[C@@H](Cc2c[nH]c3ccccc23)NC(=O)[C@H](Cc2ccccc2)NC(=O)[C@H](Cc2ccccc2)NC(=O)[C@@H](N)CSSC[C@H](C(=O)O)NC(=O)[C@H](Cc2ccccc2)NC1=O,> 1000,18,18.5,8.2,27
CC(=O)N[C@@H]1CSS[C@H](C(=O)O)NC(=O)[C@H](Cc2ccccc2)NC(=O)[C@H]([C@@H](C)O)NC(=O)[C@H](CCCCN)NC(=O)[C@@H](Cc2c[nH]c3ccccc23)NC(=O)[C@H](Cc2ccccc2)NC(=O)[C@H](Cc2ccccc2)NC1=O,540,18.5,30,1.5,51
CC(=O)N[C@H]1CSSC[C@H](C(=O)O)NC(=O)[C@H](Cc2ccccc2)NC(=O)[C@H]([C@@H](C)O)NC(=O)[C@H](CCCCN)NC(=O)[C@@H](Cc2c[nH]c3ccccc23)NC(=O)[C@H](Cc2ccccc2)NC(=O)[C@H](Cc2ccccc2)NC1=O,> 1000,4.9,12,4.5,11
CC(=O)N[C@H]1CCSSC[C@@H](C(=O)O)NC(=O)[C@H](Cc2ccccc2)NC(=O)[C@H]([C@@H](C)O)NC(=O)[C@H](CCCCN)NC(=O)[C@@H](Cc2c[nH]c3ccccc23)NC(=O)[C@H](Cc2ccccc2)NC(=O)[C@H](Cc2ccccc2)NC1=O,96,6.5,38,0.9,28
CC(=O)N[C@@H]1CCSSC[C@@H](C(=O)O)NC(=O)[C@H](Cc2ccccc2)NC(=O)[C@H]([C@@H](C)O)NC(=O)[C@H](CCCCN)NC(=O)[C@@H](Cc2c[nH]c3ccccc23)NC(=O)[C@H](Cc2ccccc2)NC(=O)[C@H](Cc2ccccc2)NC1=O,218,40,69,1.4,90
CC(=O)N[C@H]1CSS[C@H](C(=O)O)NC(=O)[C@H](Cc2ccccc2)NC(=O)[C@H]([C@@H](C)O)NC(=O)[C@H](CCCCN)NC(=O)[C@@H](Cc2c[nH]c3ccccc23)NC(=O)[C@H](Cc2ccccc2)NC(=O)[C@H](Cc2ccccc2)NC1=O,358,41,20,2,50
CC(=O)N[C@H]1CSSC[C@@H](C(=O)O)NC(=O)[C@H](Cc2ccccc2)NC(=O)[C@H]([C@@H](C)O)NC(=O)[C@H](CCCCN)NC(=O)[C@@H](Cc2c[nH]c3ccccc23)NC(=O)[C@H](Cc2ccccc2)NC(=O)[C@H](Cc2ccccc2)NC1=O,22,49,7.1,1.3,26
CC(=O)N[C@@H]1SSC[C@H](C(=O)O)NC(=O)[C@H](Cc2ccccc2)NC(=O)[C@H]([C@@H](C)O)NC(=O)[C@H](CCCCN)NC(=O)[C@@H](Cc2c[nH]c3ccccc23)NC(=O)[C@H](Cc2ccccc2)NC(=O)[C@H](Cc2ccccc2)NC1=O,> 1000,11,69,4.4,50
CC(=O)N[C@@H]1SSC[C@@H](C(=O)O)NC(=O)[C@H](Cc2ccccc2)NC(=O)[C@H]([C@@H](C)O)NC(=O)[C@H](CCCCN)NC(=O)[C@@H](Cc2c[nH]c3ccccc23)NC(=O)[C@H](Cc2ccccc2)NC(=O)[C@H](Cc2ccccc2)NC1=O,79,33,6,1.9,9
CC(=O)N[C@H]1SS[C@H](C(=O)O)NC(=O)[C@H](Cc2ccccc2)NC(=O)[C@H]([C@@H](C)O)NC(=O)[C@H](CCCCN)NC(=O)[C@@H](Cc2c[nH]c3ccccc23)NC(=O)[C@H](Cc2ccccc2)NC(=O)[C@H](Cc2ccccc2)NC1=O,> 1000,109,45,2.7,107
CC(=O)N[C@@H]1CSSC[C@H](C(=O)O)NC(=O)[C@H](Cc2ccccc2)NC(=O)[C@H]([C@@H](C)O)NC(=O)[C@H](CCCCN)NC(=O)[C@@H](Cc2c[nH]c3ccccc23)NC(=O)[C@H](Cc2ccccc2)NC(=O)[C@H](Cc2ccccc2)NC1=O,> 1000,9,15,3.25,7.4
CC(=O)N[C@H]1SS[C@@H](C(=O)O)NC(=O)[C@H](Cc2ccccc2)NC(=O)[C@H]([C@@H](C)O)NC(=O)[C@H](CCCCN)NC(=O)[C@@H](Cc2c[nH]c3ccccc23)NC(=O)[C@H](Cc2ccccc2)NC(=O)[C@H](Cc2ccccc2)NC1=O,> 1000,13,31,2.2,21
CC(=O)N[C@@H]1SS[C@@H](C(=O)O)NC(=O)[C@H](Cc2ccccc2)NC(=O)[C@H]([C@@H](C)O)NC(=O)[C@H](CCCCN)NC(=O)[C@@H](Cc2c[nH]c3ccccc23)NC(=O)[C@H](Cc2ccccc2)NC(=O)[C@H](Cc2ccccc2)NC1=O,> 1000,3.9,50,2.6,60
CC(=O)N[C@H]1SSC[C@@H](C(=O)O)NC(=O)[C@H](Cc2ccccc2)NC(=O)[C@H]([C@@H](C)O)NC(=O)[C@H](CCCCN)NC(=O)[C@@H](Cc2c[nH]c3ccccc23)NC(=O)[C@H](Cc2ccccc2)NC(=O)[C@H](Cc2ccccc2)NC1=O,416,42,14,3.1,46
CC(=O)N[C@H]1CSS[C@@H](C(=O)O)NC(=O)[C@H](Cc2ccccc2)NC(=O)[C@H]([C@@H](C)O)NC(=O)[C@H](CCCCN)NC(=O)[C@@H](Cc2c[nH]c3ccccc23)NC(=O)[C@H](Cc2ccccc2)NC(=O)[C@H](Cc2ccccc2)NC1=O,> 1000,5.4,53,6,82
"C[C@@H](O)[C@@H]1NC(=O)[C@H](CCCCN)NC(=O)[C@@H](Cc2c[nH]c3ccccc23)NC(=O)[C@H](Cc2ccccc2)NC(=O)[C@H](Cc2ccccc2)NC(=O)C(N)CSSC[C@@H](C(=O)O)NC(=O)[C@H](Cc2ccccc2)NC1=O (single isomer, unassigned)",14,14.5,4.5,1,9.5

# — ChEMBL document CHEMBL1150262, “Ring size of somatostatin analogues (ODT-8) modulates receptor selectivity and binding affinity” (J Med Chem, 2008)
